Experimental findings from BindingDB's records for doi:10.1021/jm00058a003 (Upjohn Laboratories, 1993) are described below.

The target in this experiment is 5-HT1A receptor (Bos taurus). The experiment in a line: In vitro binding affinity towards [3H]8-OH-DPAT-labeled 5-hydroxytryptamine 1A receptor sites in bovine hippocampus.
As a reminder, the Ki is the equilibrium dissociation constant of an inhibitor or competing ligand from its target. Molecule `C=CC[C@@H]1c2ccccc2CC[C@H]1NCCC` (relative stereo) [(trans)-(1-Allyl-1,2,3,4-tetrahydro-naphthalen-2-yl)-propyl-amine] yielded a Ki greater than 1000 nM.
Next, `C=CC[C@@H]1c2cccc(OC)c2CC[C@H]1NCCC` (relative stereo) [(trans)-(1-Allyl-5-methoxy-1,2,3,4-tetrahydro-naphthalen-2-yl)-propyl-amine]: greater than 1000 nM; `C=CC[C@@H]1c2c(cccc2OC)CC[C@H]1NCC1CC1` (relative stereo) [(trans)-(1-Allyl-8-methoxy-1,2,3,4-tetrahydro-naphthalen-2-yl)-cyclopropylmethyl-amine]: 4.1 nM; `C=CC[C@@H]1c2c(cccc2OC)CC[C@H]1NCCC` (relative stereo) [(trans)-(1-Allyl-8-methoxy-1,2,3,4-tetrahydro-naphthalen-2-yl)-propyl-amine]: 19 nM.
`CCCN[C@@H]1CCc2cccc(OC)c2[C@H]1CC1CC1` (relative stereo) [(trans)-(1-Cyclopropylmethyl-8-methoxy-1,2,3,4-tetrahydro-naphthalen-2-yl)-propyl-amine]: the inhibition constant Ki turned out to be 9.3 nM. This Ki lies about 2-fold lower than the previous one.
Regarding `C=CCN[C@@H]1CCc2ccccc2[C@H]1CC=C` (relative stereo) [(trans)-Allyl-(1-allyl-1,2,3,4-tetrahydro-naphthalen-2-yl)-amine], the Ki is greater than 1000 nM.
`C=CCN[C@@H]1CCc2cccc(OC)c2[C@H]1CC1CC1` (relative stereo) [(trans)-Allyl-(1-cyclopropylmethyl-8-methoxy-1,2,3,4-tetrahydro-naphthalen-2-yl)-amine] came in with a Ki of 15 nM.
`C=CCN[C@@H]1CCc2cccc(O)c2[C@@H]1CC=C` [8-Allyl-7-allylamino-5,6,7,8-tetrahydro-naphthalen-1-ol] yielded a Ki of 1 nM.
In turn, `C=CC[C@H]1c2c(O)cccc2CC[C@H]1NCCC` [8-Allyl-7-propylamino-5,6,7,8-tetrahydro-naphthalen-1-ol] yielded a Ki of 0.5 nM. This Ki lies about 2-fold lower than the previous one.
The figure for `C=CC[C@H]1c2ccccc2CC[C@H]1NCCC` [(1-Allyl-1,2,3,4-tetrahydro-naphthalen-2-yl)-propyl-amine] is 174 nM.
For the molecule `C=CC[C@H]1c2cccc(OC)c2CC[C@H]1NCCC` [(1-Allyl-5-methoxy-1,2,3,4-tetrahydro-naphthalen-2-yl)-propyl-amine], the Ki is greater than 1000 nM.
Regarding `C=CC[C@H]1c2c(cccc2OC)CC[C@H]1NCC1CC1` [(1-Allyl-8-methoxy-1,2,3,4-tetrahydro-naphthalen-2-yl)-cyclopropylmethyl-amine], the Ki came to 2.9 nM.
`C=CC[C@H]1c2c(cccc2OC)CC[C@H]1N(CCC)CCC` [(1-Allyl-8-methoxy-1,2,3,4-tetrahydro-naphthalen-2-yl)-dipropyl-amine] registered a Ki of 6.3 nM.
Next, `C=CC[C@H]1c2c(cccc2OC)CC[C@H]1NCCC` [(1-Allyl-8-methoxy-1,2,3,4-tetrahydro-naphthalen-2-yl)-propyl-amine]: 1.8 nM.
The figure for `CCCN[C@@H]1CCc2cccc(OC)c2[C@@H]1CC1CC1` [(1-Cyclopropylmethyl-8-methoxy-1,2,3,4-tetrahydro-naphthalen-2-yl)-propyl-amine] is 15 nM.
The molecule `CCCN[C@@H]1CCc2cccc(OC)c2[C@@H]1CCC` [(8-Methoxy-1-propyl-1,2,3,4-tetrahydro-naphthalen-2-yl)-propyl-amine] had a Ki of 11 nM.
In turn, `CCCN[C@@H]1CCc2cccc(OC)c2[C@@H]1CO` [(8-Methoxy-2-propylamino-1,2,3,4-tetrahydro-naphthalen-1-yl)-methanol] displayed a Ki of 5.4 nM. This Ki is about 2-fold lower than that of the molecule before.
In turn, `C=CCN[C@@H]1CCc2ccccc2[C@@H]1CC=C` [Allyl-(1-allyl-1,2,3,4-tetrahydro-naphthalen-2-yl)-amine] had a Ki of 152 nM.
Next, `C=CCN[C@@H]1CCc2cccc(OC)c2[C@@H]1CC1CC1` [Allyl-(1-cyclopropylmethyl-8-methoxy-1,2,3,4-tetrahydro-naphthalen-2-yl)-amine]: 9.4 nM; `CCCN(C)[C@@H]1CCc2cccc(OC)c2[C@@H]1CO` [[8-Methoxy-2-(methyl-propyl-amino)-1,2,3,4-tetrahydro-naphthalen-1-yl]-methanol]: 5 nM.
